Patent publication US9662461B2, “Dry powder drug delivery system and methods” (MannKind Corporation, priority 2008, dated 2017)

Columns and labels:
[1] = VMGD and container emptying by laser diffraction, DPI 2 vs predicate inhaler (Example 6); format: physicochemical; conditions: 56% trans, SSA 55, 4 kPa
Excerpt: Laser diffraction of dry powder formulations emitted from dry powder inhalers is a common methodology employed to characterize the level of de-agglomeration subjected to a powder. The methodology indicates a measure of geometric size rather than aerodynamic size as occurring in industry standard impaction methodologies. Typically, the geometric size of the emitted powder includes a volumetric distribution characterized by the median particle size, VMGD. Importantly, geometric sizes of the emitted particles are discerned with heightened resolution as compared to the aerodynamic sizes provided by impaction methods. Smaller sizes are preferred and result in greater likelihood of individual particles being delivered to the pulmonary tract. Thus, differences in inhaler de-agglomeration and ultimate performance can be easier to resolve with diffraction. In these experiments, an inhaler as specified in Example 3 and a predicate inhaler are tested with laser diffraction at pressures analogous to actual patient inspiratory capacities to determine the effectiveness of the inhalation system to de-agglomerate powder formulations. […] Reported in Table 5 are a VMGD and an efficiency of the container emptying during the testing.

[2] = In vitro powder performance DPI 2 vs MEDTONE delivery system (Example 7); format: physicochemical; conditions: 4 kPa
Excerpt: In vitro powder performance for these systems was compared for various parameter of inhaler performance. For DPI 2 a single discharge per cartridge was used as compared to two discharges per cartridge in the MEDTONE® system.
Particle sizing by laser diffraction and quantification of emitted mass as described above were used in these experiments. A laser diffraction instrument (Sympatec HELOS) was adapted with a novel pressurized inhaler chamber to facilitate analysis of powder plumes. MTDS cartridges were discharged twice per determination versus once with DPI 2.

[3] = Pharmacokinetics of FDKP inhaled as FDKP inhalation powder (Example 8); format: in vivo, healthy volunteers; conditions: for AVG mean AUC fdkp per emitted fdkp mass: n=10
Procedure: The MEDTONE® inhaler system was used for comparison.
To generate a “hard” inhalation, the subject provided a nominal inhalation time of about 6.5 seconds and a peak pressure of 7 kPa. Conversely, to generate an “easy” inhalation, the subject provided a nominal inhalation time of about 6.5 seconds and a peak pressure of 5 kPa. Coupled with the inhalation monitoring apparatus, gravimetric assessment of the powder mass discharged from the cartridge was performed. This enabled a linkage between inhalation maneuver during dosing, cartridge discharge mass and pharmacokinetic profile determinations for each subject.
The study was an open-label, crossover, 2-part study in healthy volunteers.
Part 2 was carried out as a 2-part, 2-way crossover study for evaluating the effect of flow rate (15 versus 30 LPM) and inhalation time (3 versus 6 seconds). For each parameter tested (i.e., flow rate, and inhalation time), ten subjects were crossed over for each parameter with 20 subjects total for all of the parameters. Pharmacokinetics of FDPK was assessed with each treatment from blood samples taken from the subjects.

[4] = DPI 2, 10 mg fill, single discharge, n=15
[5] = MEDTONE (MTDS), 10 mg fill FDKP, two discharges, n=30

SMILES: O=C(O)/C=C/C(=O)NCCCCC1NC(=O)C(CCCCNC(=O)/C=C/C(=O)O)NC1=O (stereo not shown) [FDKP, 3,6-bis(N-fumaryl-4-aminobutyl)-2,5-diketopiperazine]
- VMGD [1]: 6.800 micron
- Ave. Geometric SD [2, 4]: 3.79 μm
- Ave. VMGD [2, 4]: 6.84 μm
- Ave. Geometric SD [2, 5]: 2.94 μm
- Ave. VMGD [2, 5]: 21.21 μm
- delivery of FDKP into the systemic circulation, DPI 1 better than MEDTONE ([3]; DPI 1 vs MEDTONE inhaler): about 30%
- increase in FDKP plasma AUC, DPI 1 over MEDTONE ([3]; FDKP 10 mg): ~2 fold
- AVG mean AUC fdkp per emitted fdkp mass ([3]; Part 1, DPI 1, cartridge 10 mg fdkp): 3495 ng * min/mL * mg fdkp
- AVG mean AUC fdkp per emitted fdkp mass ([3]; Part 1, MT (MEDTONE), two inhalations, cartridge 10 mg fdkp): 1934 ng * min/mL * mg fdkp
- AVG mean AUC fdkp per emitted fdkp mass ([3]; Part 2, DPI 1, 10 mg, long inhalation time): 3289 ng * min/mL * mg fdkp
- AVG mean AUC fdkp per emitted fdkp mass ([3]; Part 2, DPI 1, 10 mg, short inhalation time): 3310 ng * min/mL * mg fdkp
- AVG mean AUC fdkp per emitted fdkp mass ([3]; Part 3, DPI 1, 10 mg, easy inhalation effort): 3925 ng * min/mL * mg fdkp
- AVG mean AUC fdkp per emitted fdkp mass ([3]; Part 3, DPI 1, 10 mg, hard inhalation effort): 3867 ng * min/mL * mg fdkp
